Measurements published in US12637445B2, “KIF18A inhibitors” (AMGEN INC., priority 2019, dated 2026).

Target: T1, Recombinant human KIF18A (1-467 His-tagged) protein (Homo sapiens, UniProt Q8NI77)
T1 construct: Recombinant human KIF18A (1-467 His-tagged) protein; His
Assay: KIF18A Enzyme Assay (microtubule-stimulated ATPase activity, ADP-Glo)
Type: biochemical
Details: 30 nM KIF18A, 30 μg/mL pig microtubules, 75 μM ATP, ADP-Glo luminescence
From the text: KIF18A Enzyme Assay: Microtubule-stimulated ATPase activity assay is used to measure KIF18A enzyme activity after treatment with compound. Compounds were 2-fold serially diluted in DMSO (Sigma Inc) over 22-point concentration range. Recombinant human KIF18A (1-467 His-tagged) protein was expressed using a baculovirus system and purified by affinity chromatography by Amgen Inc. Concentrations of KIF18A protein, microtubules (MT), and ATP in the reaction were optimized for standardized homogenous enzyme assay using ADP-Glo™ Kinase/ATPase Assay Kit (Promega Inc). The assay measures ADP formed from the ATPase reaction. Prepare reaction buffer [(15 mM Tris, pH 7.5 (Teknova Inc), 10 mM MgCl2 (IT Baker Inc), 0.01% Pluronic F-68 (Life Technologies Inc), 1 μM Taxol (Cytoskeleton Inc), and 30 μg/mL pig microtubules (Cytoskeleton Inc)]. Add compound and KIF18A protein (30 nM) to prepared reaction buffer and incubated for 15 minutes at room temperature, next add ATP (at Kin, 75 μM) to the reaction mixture and incubated for an additional 15 minutes at room temperature. Mix 5 μl of ADP-Glor™ Reagent and 2.5 μl of the reaction mixture and incubate for 40 minutes at room temperature. Add 10 μl ADP-Glorh Detection Reagent and incubate for 40 minutes at room temperature. Read luminescence using EnVision microplate reader with ultra-luminescence module (Perkin Elmer Inc). Concentration-response curve-fitting and IC50 determination was performed using Genedata Screener Software (Standard 15.0.1, Genedata Inc) with a four-parameter logistic regression fit model.

T1 sequence (Q8NI77 1-467): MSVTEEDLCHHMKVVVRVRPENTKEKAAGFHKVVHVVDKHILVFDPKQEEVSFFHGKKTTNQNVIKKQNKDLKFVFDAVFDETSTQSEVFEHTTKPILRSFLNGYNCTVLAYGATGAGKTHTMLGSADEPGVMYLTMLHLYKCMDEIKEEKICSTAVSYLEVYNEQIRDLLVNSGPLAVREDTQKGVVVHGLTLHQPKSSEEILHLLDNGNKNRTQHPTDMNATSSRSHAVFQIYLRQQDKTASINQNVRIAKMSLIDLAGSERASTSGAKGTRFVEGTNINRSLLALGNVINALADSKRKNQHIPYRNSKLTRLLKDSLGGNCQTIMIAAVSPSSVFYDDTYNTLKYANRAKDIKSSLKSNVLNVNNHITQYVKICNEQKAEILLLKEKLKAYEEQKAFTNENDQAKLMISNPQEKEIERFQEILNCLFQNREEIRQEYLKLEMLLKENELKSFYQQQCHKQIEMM
T1 sequence (P02550 whole entry partner): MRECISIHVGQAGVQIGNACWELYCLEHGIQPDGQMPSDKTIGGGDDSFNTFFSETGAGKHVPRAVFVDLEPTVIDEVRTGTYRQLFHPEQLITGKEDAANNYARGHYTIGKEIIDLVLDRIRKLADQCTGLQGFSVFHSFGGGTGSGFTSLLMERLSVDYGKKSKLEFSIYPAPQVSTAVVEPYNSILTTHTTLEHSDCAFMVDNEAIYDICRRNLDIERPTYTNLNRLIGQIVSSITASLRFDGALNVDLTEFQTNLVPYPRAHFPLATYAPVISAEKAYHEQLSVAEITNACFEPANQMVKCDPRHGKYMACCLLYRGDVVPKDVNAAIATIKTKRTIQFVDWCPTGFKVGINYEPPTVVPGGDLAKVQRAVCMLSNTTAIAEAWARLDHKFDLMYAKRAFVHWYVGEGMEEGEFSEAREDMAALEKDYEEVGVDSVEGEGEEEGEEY
T1 sequence (P02554 whole entry partner): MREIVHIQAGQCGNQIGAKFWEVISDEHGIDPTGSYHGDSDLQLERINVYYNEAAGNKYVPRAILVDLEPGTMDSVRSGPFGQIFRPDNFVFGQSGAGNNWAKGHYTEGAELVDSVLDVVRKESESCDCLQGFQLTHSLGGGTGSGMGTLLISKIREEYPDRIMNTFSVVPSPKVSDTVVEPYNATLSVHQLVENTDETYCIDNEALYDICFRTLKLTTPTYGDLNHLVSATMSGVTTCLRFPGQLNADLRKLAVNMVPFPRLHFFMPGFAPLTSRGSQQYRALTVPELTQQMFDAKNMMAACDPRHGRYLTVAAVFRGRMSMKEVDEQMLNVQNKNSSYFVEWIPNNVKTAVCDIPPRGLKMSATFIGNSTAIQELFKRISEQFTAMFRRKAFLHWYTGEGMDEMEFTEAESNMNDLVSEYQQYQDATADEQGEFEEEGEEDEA

Row | IC50 | Compound
1 | 73 nM | Cc1cc(Nc2ncnc3cc([S@](=N)(=O)C4CC4)cc(N4CCC5(CC4)CC5)c23)cc(N2CCC(F)(F)CC2)c1 (single isomer, unassigned) [Example 102-1]
2 | 262 nM | Cc1cc(Nc2ncnc3cc([S@@](=N)(=O)C4CC4)cc(N4CCC5(CC4)CC5)c23)cc(N2CCC(F)(F)CC2)c1 (single isomer, unassigned) [Example 102-2]
3 | 49 nM | Cc1cc(Nc2ncnc3cc(NS(=O)(=O)CCO)cc(N4CCC5(CC4)CC5)c23)cc(N2CCC(F)(F)CC2)c1 [Example 100, N-(4-((3-(4,4-Difluoropiperidin-1-yl)-5-methylphenyl)amino)-5-(6-azaspiro[2.5]octan-6-yl)quinazolin-7-yl)-2-hydroxyethane-1-sulfonamide]
4 | 955 nM | Cc1cc(Nc2nc(C)nc3cc(NS(=O)(=O)CCO)cc(N4CCC5(CC4)CC5)c23)cc(N2CCC(F)(F)CC2)c1 [Example 100-1, N-(4-((3-(4,4-Difluoropiperidin-1-yl)-5-methylphenyl)amino)-2-methyl-5-(6-azaspiro[2.5]octan-6-yl)quinazolin-7-yl)-2-hydroxyethane-1-sulfonamide]
5 | 940 nM | Cc1cc(Nc2ncnc3cc(S(C)(=O)=O)cc(N4CCC5(CC4)CC5)c23)cc(N2CCC(F)(F)CC2)c1 [Example 101, N-(3-(4,4-Difluoropiperidin-1-yl)-5-methylphenyl)-7-(methylsulfonyl)-5-(6-azaspiro[2.5]octan-6-yl)quinazolin-4-amine]
6 | 3340 nM | Cc1cc(Nc2ncnc3cccc(N4CCC5(CC4)CC5)c23)cc(N2CCC(F)(F)CC2)c1 [Example 101-1, N-(3-(4,4-Difluoropiperidin-1-yl)-5-methylphenyl)-5-(6-azaspiro[2.5]octan-6-yl)quinazolin-4-amine]
7 | 175 nM | Cc1cc(Nc2ncnc3cc(NS(=O)(=O)CCO)cc(N4CCC5(CC4)CC5)c23)cc(OCCC(F)(F)F)c1 [Example 103, 2-Hydroxy-N-(4-((3-methyl-5-(3,3,3-trifluoropropoxy)phenyl)amino)-5-(6-azaspiro[2.5]octan-6-yl)quinazolin-7-yl)ethane-1-sulfonamide]
8 | 403 nM | Cc1cc(C)cc(Nc2ncnc3cc(NS(=O)(=O)CCO)cc(N4CCC5(CC4)CC5)c23)c1 [Example 103-1, N-(4-((3,5-Dimethylphenyl)amino)-5-(6-azaspiro[2.5]octan-6-yl)quinazolin-7-yl)-2-hydroxyethane-1-sulfonamide]
9 | 61 nM | O=S(=O)(CCO)Nc1cc(N2CCC3(CC2)CC3)c2c(Nc3cccc(OCCC(F)(F)F)c3)ncnc2c1 [Example 103-2, N-(5-(6-Azaspiro[2.5]octan-6-yl)-4-((3-(3,3,3-trifluoropropoxy)phenyl)amino)quinazolin-7-yl)-2-hydroxyethane-1-sulfonamide]
10 | 129 nM | Cc1cc(Nc2ncnc3cc(NS(=O)(=O)CCO)cc(N4CCC5(CC4)CC5)c23)nc(N2CCC(F)(F)CC2)n1 [Example 104, N-(4-((2-(4,4-Difluoropiperidin-1-yl)-6-methylpyrimidin-4-yl)amino)-5-(6-azaspiro[2.5]octan-6-yl)quinazolin-7-yl)-2-hydroxyethane-1-sulfonamide]
11 | 82 nM | Cc1cc(Nc2ncnc3cc(NS(=O)(=O)CCO)cc(N4CCC5(CC4)CC5)c23)cc(N2CCC(F)(F)CC2)n1 [Example 105, N-(4-((2-(4,4-Difluoropiperidin-1-yl)-6-methylpyridin-4-yl)amino)-5-(6-azaspiro[2.5]octan-6-yl)quinazolin-7-yl)-2-hydroxyethane-1-sulfonamide]
12 | 78 nM | Cc1cc(Nc2ncnc3cc(NS(=O)(=O)CCO)cc(N4CCC5(CC4)CC5)c23)nc(N2CCC(F)(F)CC2)c1 [Example 105-1, N-(4-((6-(4,4-Difluoropiperidin-1-yl)-4-methylpyridin-2-yl)amino)-5-(6-azaspiro[2.5]octan-6-yl)quinazolin-7-yl)-2-hydroxyethane-1-sulfonamide]
13 | 2840 nM | Cc1cc(Oc2ncnc3cc(NS(=O)(=O)CCO)cc(N4CCC5(CC4)CC5)c23)cc(N2CCC(F)(F)CC2)c1 [Example 105-2, N-(4-(3-(4,4-Difluoropiperidin-1-yl)-5-methylphenoxy)-5-(6-azaspiro[2.5]octan-6-yl)quinazolin-7-yl)-2-hydroxyethane-1-sulfonamide]
14 | 25 nM | Cc1cc(Nc2nncc3cc(NS(=O)(=O)CCO)cc(N4CCC5(CC4)CC5)c23)cc(N2CCC(F)(F)CC2)c1 [Example 106, N-(1-((3-(4,4-Difluoropiperidin-1-yl)-5-methylphenyl)amino)-8-(6-azaspiro[2.5]octan-6-yl)phthalazin-6-yl)-2-hydroxyethane-1-sulfonamide]
